The values below come from patent US11485728B2, “Small molecules for the treatment of autoimmune diseases and cancer” (Athos Therapeutics, Inc., priority 2020, dated 2022).

Bounds are passed on as bounds.

Common to all, as to format: in vitro ADME
One assay has as its target T1, CYP1A2 (Homo sapiens, UniProt P05177).
T1 construct: from tissue; host or cells: pooled human liver microsomes
T1 sequence (P05177 1-516): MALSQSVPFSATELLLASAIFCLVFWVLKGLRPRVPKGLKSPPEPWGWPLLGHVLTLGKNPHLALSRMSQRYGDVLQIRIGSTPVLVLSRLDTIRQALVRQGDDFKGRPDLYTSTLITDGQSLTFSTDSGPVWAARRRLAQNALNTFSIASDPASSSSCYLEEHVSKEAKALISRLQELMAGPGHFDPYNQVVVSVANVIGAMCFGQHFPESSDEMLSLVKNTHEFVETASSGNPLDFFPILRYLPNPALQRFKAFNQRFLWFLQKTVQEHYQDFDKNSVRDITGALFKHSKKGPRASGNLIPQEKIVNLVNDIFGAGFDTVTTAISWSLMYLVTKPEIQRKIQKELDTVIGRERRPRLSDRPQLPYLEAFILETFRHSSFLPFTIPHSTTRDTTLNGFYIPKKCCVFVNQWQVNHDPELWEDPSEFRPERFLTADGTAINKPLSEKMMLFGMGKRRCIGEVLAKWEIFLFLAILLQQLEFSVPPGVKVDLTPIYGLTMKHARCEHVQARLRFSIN
The assay can be described thus: CYP-direct inhibition, CYP1A2. To be noted: human liver microsome; substrate ethoxy-resorufin; read-out: IC50 CYP-1A2. How it is done: (§1) Many drugs inhibit cytochrome P450 enzymes to cause clinically significant changes in the pharmacokinetics of other drugs. In vitro cytochrome P450 inhibition, can provide crucial information in evaluating potential clinical drug-drug interactions and is useful for focusing in vivo tests to areas of concern. The cytochrome P450 inhibition assay was developed by preparing a working cocktail solution consisting of six probe substrates 10 μM ethoxy-resorufin (CYP1A2), 100 μM rosiglitazone (CYP2C8), 50 μM diclofenac (CYP2C9), 300 μM S-mephenytoin (CYP2C19), 50 μM dextromethorphan (CYP2D6), and 20 μM midazolam (CYP3A4). A mixture solution consists of 140 uL of 0.286 mg/mL of pooled human liver microsome working solution and 20 uL working solutions of test articles, standard control inhibitors, or positive control placebo and 20 uL of substrate cocktail mixture working solution was prepared. The mixture solution was pre-warm in a gentle shaking bath at 37±2° C. for 5 minutes. The enzymatic reaction started by adding 20 uL of NRS working solution to the mixture solution and incubated for 10 minutes at 37±2° C. To stop the reaction, an addition of 400 μL cold stop solution (acetonitrile containing 50 ng/mL Tolbutamide as an internal standard (I.Std.) was added to the mixture solution. The final concentration of test article, inhibitors, substrates, and cofactors are noted in Table 0.1 below. Two individual samples were prepared for each test compound. The extracted samples were vortexed and then centrifuged at 4500 rpm for 7 minutes using Eppendorf Centrifuge 5910R. 200 uL of supernatant was diluting with 200 uL of 50% Methanol into 96-DW plate for LC/MS/MS analysis
(§2) Concentration-response plots are used to determine the effects of an inhibitor on an enzymatic reaction. A typical concentration-response plot provides fractional activity (Y axis) is plotted as a function of log inhibitor concentration (X axis). The data are fitted using a standard Sigmoidal dose-response equation which is also called a […] logistic equation. The concentration of compound that results in 50% inhibition of maximal activity is termed as the IC50 (inhibitor concentration yielding 50% inhibition). IC50 value is calculated using Prism GraphPad software, version 9. […].
(§3) Cytochrome P450 inhibition of a drug is a key factor in determining pharmacokinetic drug-drug interactions. The objective of this study was to evaluate the inhibition potential of G9a inhibitors on six (6) major human cytochrome P450 enzymes, including CYP1A2, CYP2C8, CYP2C9, CYP2C19, CYP2D6, and CYP3A4. Inhibition was determined by using a substrate cocktail and analyzing the rate of specific metabolites formation. The cytochrome P450 inhibition assay was developed using a cocktail consisting of six (6) probe substrates ethoxy-resorufin (CYP1A2), rosiglitazone (CYP2C8), diclofenac (CYP2C9), S-mephenytoin (CYP2C19), dextromethorphan (CYP2D6), and midazolam (CYP3A4). The cocktail was incubated in human liver microsome with NADPH regenerating system (NRS) in a shaking bath at 37±2° C. The formation of specific metabolites was monitored by LC/MS/MS. Test compound was added to the cocktail-liver microsome mixture at varying concentrations and its effect on cytochrome P450 activity was determined by analyzing the rate of specific metabolite formation. The percent inhibition was calculated and plotted with reference to the concentration, and the IC50 value for inhibition was derived by fitting the data with a using log(inhibitor) vs. normalized response with variable slope least squares fit by Graphpad Prism® software. […].
A general note: Liver microsomes are a subcellular fraction often used to study metabolism.

In another assay the target is T2, CYP2C19 (Homo sapiens, UniProt P33261).
T2 construct: from tissue; host or cells: pooled human liver microsomes
T2 sequence (P33261 whole entry): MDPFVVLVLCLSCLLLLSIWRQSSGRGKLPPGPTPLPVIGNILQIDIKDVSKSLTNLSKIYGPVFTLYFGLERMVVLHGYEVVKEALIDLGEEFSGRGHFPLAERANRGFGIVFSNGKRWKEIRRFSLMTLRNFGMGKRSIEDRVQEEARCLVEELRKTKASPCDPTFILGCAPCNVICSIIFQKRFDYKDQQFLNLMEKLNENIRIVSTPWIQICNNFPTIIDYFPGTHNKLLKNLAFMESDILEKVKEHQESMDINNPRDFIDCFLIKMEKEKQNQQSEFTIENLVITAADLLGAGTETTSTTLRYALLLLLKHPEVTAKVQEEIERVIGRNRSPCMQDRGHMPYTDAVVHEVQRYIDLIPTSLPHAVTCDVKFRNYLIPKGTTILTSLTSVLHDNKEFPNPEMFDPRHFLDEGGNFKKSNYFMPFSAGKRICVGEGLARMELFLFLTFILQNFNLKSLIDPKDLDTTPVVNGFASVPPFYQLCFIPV
Nature of the assay: CYP-direct inhibition, CYP2C19. How it is done: as §1, §2, §3

A further assay has as its target T3, CYP3A4 (Homo sapiens, UniProt P08684).
T3 construct: from tissue; host or cells: pooled human liver microsomes
The assay can be described thus: CYP-direct inhibition, CYP3A4. The protocol:
as §1, §2, §3

T3 sequence (P08684 whole entry): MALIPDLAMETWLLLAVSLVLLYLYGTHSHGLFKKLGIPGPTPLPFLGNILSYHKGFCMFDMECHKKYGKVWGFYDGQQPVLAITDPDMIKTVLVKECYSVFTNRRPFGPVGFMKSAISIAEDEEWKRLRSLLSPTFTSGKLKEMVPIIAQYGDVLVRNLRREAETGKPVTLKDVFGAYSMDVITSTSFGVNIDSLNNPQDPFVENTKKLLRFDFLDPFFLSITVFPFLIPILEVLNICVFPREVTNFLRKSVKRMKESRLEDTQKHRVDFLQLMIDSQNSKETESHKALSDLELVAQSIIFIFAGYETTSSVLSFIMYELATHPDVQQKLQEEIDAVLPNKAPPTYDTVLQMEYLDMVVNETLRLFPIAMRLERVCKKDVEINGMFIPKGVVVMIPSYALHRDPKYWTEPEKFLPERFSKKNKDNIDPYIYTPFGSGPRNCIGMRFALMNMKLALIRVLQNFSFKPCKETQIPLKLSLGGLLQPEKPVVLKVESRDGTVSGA

The term IC50 denotes the point on the concentration scale where inhibition reaches its midpoint. Take `COc1cc2c(NC3CCN(C(C)C)CC3)nc(-n3ccnc3)nc2cc1OCCCN1CCCC1` [Compound 156, 2-(1H-imidazol-1-yl)-N-(1-isopropylpiperidin-4-yl)-6-methoxy-7-(3-(pyrrolidin-1-yl)propoxy)quinazolin-4-amine]: the IC50 at CYP1A2, on CYP2C19 and on CYP3A4 was over 100 µM in each case.
Consider `COc1cc2c(Nc3ccncc3)nc(N3CCC(F)(F)CC3)nc2cc1OCCCN1CCCC1` [Compound 7, 2-(4,4-difluoropiperidin-1-yl)-6-methoxy-N-(pyridin-4-yl)-7-(3-(pyrrolidin-1-yl)propoxy)quinazolin-4-amine], for which the results for the IC50 at CYP1A2, against CYP2C19 and at CYP3A4 were over 100 µM, 44.3 µM and over 100 µM, respectively.
As to `COc1cc2c(NC3CCOCC3)nc(N3CCCN(C)CC3)nc2cc1OCCCN1CCCC1` [Compound 237, 6-methoxy-2-(4-methyl-1,4-diazepan-1-yl)-7-(3-(pyrrolidin-1-yl)propoxy)-N-(tetrahydro-2H-pyran-4-yl)quinazolin-4-amine], the half-inhibitory concentration (IC50) on CYP1A2, on CYP2C19 and against CYP3A4 was over 100 µM each time.
`COc1cc2c(N[C@H]3CCCNC3)nc(N3CCCC3)nc2cc1OCCCN1CCCC1` [Compound 158, (S)-6-methoxy-N-(piperidin-3-yl)-2-(pyrrolidin-1-yl)-7-(3-(pyrrolidin-1-yl)propoxy)quinazolin-4-amine]: the IC50 on CYP1A2, on CYP2C19 and against CYP3A4 was over 100 µM in each case.
Take `COc1cc2c(NC3CCS(=O)(=O)CC3)nc(N3CCCC3)nc2cc1OCCCN1CCCC1` [Compound 80, 4-((6-methoxy-2-(pyrrolidin-1-yl)-7-(3-(pyrrolidin-1-yl)propoxy)quinazolin-4-yl)amino)tetrahydro-2H-thiopyran 1,1-dioxide]: the 50% inhibitory concentration (IC50) at CYP1A2, against CYP2C19 and against CYP3A4 was over 100 µM in each case.
Consider `COc1cc2c(NC3CCS(=O)(=O)CC3)nc(N3CCS(=O)(=O)CC3)nc2cc1OCCCN1CCCC1` [Compound 103, 4-(4-((1,1-dioxidotetrahydro-2H-thiopyran-4-yl)amino)-6-methoxy-7-(3-(pyrrolidin-1-yl)propoxy)quinazolin-2-yl)thiomorpholine 1,1-dioxide], for which the IC50 on CYP1A2, against CYP2C19 and against CYP3A4 was over 100 µM throughout.
`COc1cc2c(NC3CCOCC3)nc(N3CCC3)nc2cc1OCCCN1CCCC1` [Compound 174, 2-(azetidin-1-yl)-6-methoxy-7-(3-(pyrrolidin-1-yl)propoxy)-N-(tetrahydro-2H-pyran-4-yl)quinazolin-4-amine]: the 50% inhibitory concentration (IC50) at CYP1A2 is 63.1 µM; on CYP2C19, over 100 µM; on CYP3A4 it was over 100 µM.
`COc1cc2c(NC3CCS(=O)(=O)CC3)nc(N3CCOCC3)nc2cc1OCCCN1CCCC1` [Compound 102, 4-((6-methoxy-2-morpholino-7-(3-(pyrrolidin-1-yl)propoxy)quinazolin-4-yl)amino)tetrahydro-2H-thiopyran 1,1-dioxide]: the IC50 on CYP1A2, against CYP2C19 and against CYP3A4 was over 100 µM throughout.
As to `COc1cc2c(N[C@@H]3CCCNC3)nc(N3CCCC3)nc2cc1OCCCN1CCCC1` [Compound 159, (R)-6-methoxy-N-(piperidin-3-yl)-2-(pyrrolidin-1-yl)-7-(3-(pyrrolidin-1-yl)propoxy)quinazolin-4-amine], the IC50 at CYP1A2, at CYP2C19 and on CYP3A4 was over 100 µM in each case.
Turning to `COCCNc1nc(N2CCC(F)(F)CC2)nc2cc(OCCCN3CCCC3)c(OC)cc12` [Compound 4, 2-(4,4-difluoropiperidin-1-yl)-6-methoxy-N-(2-methoxyethyl)-7-(3-(pyrrolidin-1-yl)propoxy)quinazolin-4-amine], the values for the half-maximal inhibitory concentration (IC50) at CYP1A2, against CYP2C19 and against CYP3A4 were over 100 µM, 60.9 µM and over 100 µM, respectively.
Regarding `COc1cc2c(NC3CCOCC3)nc(N3CCC(F)(F)CC3)nc2cc1OCCCN1CCCC1` [Compound 2, 2-(4,4-difluoropiperidin-1-yl)-6-methoxy-7-(3-(pyrrolidin-1-yl)propoxy)-N-(tetrahydro-2H-pyran-4-yl)quinazolin-4-amine], the 50% inhibitory concentration (IC50) on CYP1A2, against CYP2C19 and against CYP3A4 was over 100 µM in each case.
As to `COc1cc2c(NC3CCOCC3)nc(N3CCN(C)CC3)nc2cc1OCCCN1CCCC1` [Compound 236, 6-methoxy-2-(4-methylpiperazin-1-yl)-7-(3-(pyrrolidin-1-yl)propoxy)-N-(tetrahydro-2H-pyran-4-yl)quinazolin-4-amine], the IC50 on CYP1A2, against CYP2C19 and at CYP3A4 was over 100 µM each time.
